According to patent US11066414B2, “Cot modulators and methods of use thereof” (Gilead Sciences, Inc., priority 2015, dated 2021):
Where two headings read alike, the source gives them in different places.

How the values were obtained:
Human Cot = Human Cot (Homo sapiens (Human), UniProt P41279); test: High Throughput Cot Biochemical Assay
TNFα = test: Cot Monocyte TNFα Cell Based Assay
[1] = read-out: IC50 HTRF, Cot HTRF (TR-FRET KinEASE) biochemical assay, 400 μM ATP
[2] = read-out: EC50 TNF, LPS-stimulated human monocytes, TNFα TR-FRET
[3] = read-out: IC50 HTRF, Cot HTRF (TR-FRET) biochemical assay
[4] = read-out: EC50 TNF, LPS-stimulated human monocytes, TNFα
[5] = IC50 HTRF, Cot HTRF (TR-FRET) biochemical assay
[6] = Homo sapiens, Monocyte, read-out: EC50 TNF, LPS-stimulated human monocytes, TNFα
[7] = IC50 HTRF, Cot HTRF (TR-FRET KinEASE) biochemical assay, 400 μM ATP
[8] = Homo sapiens, Monocyte, read-out: EC50 TNF, LPS-stimulated human monocytes, TNFα TR-FRET

Chain of Human Cot (P41279 30-397): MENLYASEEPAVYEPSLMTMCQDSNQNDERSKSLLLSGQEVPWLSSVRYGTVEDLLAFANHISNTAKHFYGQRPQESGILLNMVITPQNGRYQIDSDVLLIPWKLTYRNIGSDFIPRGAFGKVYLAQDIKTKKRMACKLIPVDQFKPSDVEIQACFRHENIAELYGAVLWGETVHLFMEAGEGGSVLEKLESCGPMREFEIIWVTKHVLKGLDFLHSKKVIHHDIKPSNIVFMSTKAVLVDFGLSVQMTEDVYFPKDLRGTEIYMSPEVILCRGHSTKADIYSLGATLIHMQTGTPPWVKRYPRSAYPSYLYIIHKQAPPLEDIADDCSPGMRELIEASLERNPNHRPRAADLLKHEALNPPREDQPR

Row | Structure (SMILES) | IC50 (Human Cot; [5]) | EC50 (TNFα; [6]) | other results
1 | Cc1nnc(C2(n3cc([C@@H](Nc4cc(C#N)c5ncc(C#N)c(NCC(C)(C)C)c5c4)c4ccc(F)nc4C)nn3)CC2)o1 [Example 907, (S)-6-(((6-fluoro-2-methylpyridin-3-yl)(1-(1-(5-methyl-l,3,4-oxadiazol-2-yl)cyclopropyl)-1H-1,2,3-triazol-4-yl)methyl)amino)-4-(neopentylamino)quinoline-3,8-dicarbonitrile] | – | – | IC50 (Human Cot; [1]): 4 nM; EC50 (TNFα; [2]): 51 nM
2 | CC[C@@H](Nc1c(C#N)cnc2c(Cl)cc(N[C@@H](c3cccnc3)c3cn([C@H]4[C@@H]5CN(C6COC6)C[C@@H]54)nn3)cc12)c1ccccc1 [Example 174, 8-chloro-6-(((S)-(1-((1 R,5S,6s)-3-(oxetan-3-yl)-3-azabicyclo[3.1,0]hexan-6-yl)-1H-1,2,3-triazol-4-yl)(pyridin-3-yl)methyl)amino)-4-(((R)-1-phenylpropyl)amino)quinoline-3-carbonitrile] | – | – | IC50 (Human Cot; [3]): 2 nM; EC50 (TNFα; [4]): 54 nM
3 | Cc1nc(F)ccc1[C@H](Nc1cc(C#N)c2ncc(C#N)c(NCC(C)(C)C)c2c1)c1cn(C2(C(N)=O)CCC2)nn1 [Example 494, (S)-1-(4-(((3,8-dicyano-4-(neopentyl-amino)quinolin-6-yl)amino)(6-fluoro-2-methylpyridin-3-yl)methyl)-1H-1,2,3-triazol-1-yl)cyclobutane-1-carboxamide] | 1 nM | 444 nM | –
4 | Cc1nc(F)ccc1[C@H](Nc1cc(-c2cncnc2)c2ncc(C#N)c(NCC(C)(C)C)c2c1)c1cn(C2(C(F)F)CC2)nn1 [Example 976] | – | – | IC50 (Human Cot; [1]): 21 nM; EC50 (TNFα; [2]): 276 nM
5 | Cc1nc(F)ccc1[C@H](Nc1cc(C#N)c2ncc(C#N)c(N[C@@H]3CCOCC3(C)C)c2c1)c1cn(C2(C3CC3)CC2)nn1 [Example 675] | – | – | IC50 (Human Cot; [3]): 1 nM; EC50 (TNFα; [4]): 7 nM
6 | C[C@@H](CF)n1cc([C@@H](Nc2cc(Cl)c3ncc(C#N)c(Nc4cnc(F)c(F)c4)c3c2)c2cccnc2)nn1 [Example 197, 8-chloro-4-((5,6-difluoropyridin-3-yl)amino)-6-(((S)-(1-((S)-1-fluoropropan-2-yl)-1H-1,2,3-triazol-4-yl)(pyridin-3-yl)methyl)amino)quinoline-3-carbonitrile] | 9 nM | 599 nM | –
7 | N#Cc1cnc2c(Cl)cc(N[C@@H](c3cccnc3)c3cn(C4COC4)nn3)cc2c1NC1CCOCC1 [Example 201, (S)-8-chloro-6-(((1-(oxetan-3-yl)-1H-1,2,3-triazol-4-yl)(pyridin-3-yl)methyl)amino)-4-((tetrahydro-2H-pyran-4-yl)amino)quinoline-3-carbonitrile] | 56 nM | 5600 nM | –
8 | [2H][C@](Nc1cc(C#N)c2ncc(C#N)c(N[C@H](CC)c3ccccc3)c2c1)(c1ccc(F)nc1)c1cn(C2CC2)nn1 [Example 117, 6-(((S)-(-cyclopropyl-1H-1,2,3-triazol-4-yl)(6-fluoropyridin-3-yl)methyl-d)amino)-4-(((R)-1-phenylpropyl)amino)quinoline-3,8-dicarbonitrile] | 3 nM | 94 nM | –
9 | CC[C@@H](Nc1c(C#N)cnc2c(Cl)cc(N[C@@H](c3cccnc3)c3cn(CCCN4CCCC4)nn3)cc12)c1ccccc1 [Example 176, 8-chloro-4-(((R)-1-phenylpropyl)amino)-6-(((S)-pyridin-3-yl(1-(3-(pyrrolidin-1-yl)propyl)-1H-1,2,3-triazol-4-yl)methyl)amino)quinoline-3-carbonitrile] | 2 nM | 31 nM | –
10 | Cc1nc(F)ccc1[C@H](Nc1cc(Cl)c2ncc(C#N)c(NCC(C)(C)C)c2c1)c1nnn(C)c1F [Example 963, (S)-8-chloro-6-(((5-fluoro-1-methyl-1H-1,2,3-triazol-4-yl)(6-fluoro-2-methylpyridin-3-yl)methyl)amino)-4-(neopentylamino)quinoline-3-carbonitrile] | – | – | IC50 (Human Cot; [7]): 4 nM; EC50 (TNFα; [8]): 51 nM
11 | COc1ccc2c([C@H](Nc3cc(Cl)c4ncc(C#N)c(NCC(C)(C)C)c4c3)c3cn(C4(C(F)(F)F)CC4)nn3)cccc2n1 [Example 930, (S)-8-chloro-6-(((2-methoxyquinolin-5-yl)(1-(1-(trifluoromethyl)cyclopropyl)-1H-1,2,3-triazol-4-yl)methyl)amino)-4-(neopentylamino)quinoline-3-carbonitrile] | – | – | IC50 (Human Cot; [7]): 33 nM; EC50 (TNFα; [8]): 504 nM
12 | N#Cc1cnc2c(Cl)cc(N[C@H](c3cn(C4COC4)nn3)c3csc4c3CCNC4)cc2c1Nc1ccc(F)c(Cl)c1 [Example 279, (S)-8-chloro-4-((3-chloro-4-fluorophenyl)amino)-6-(((1-(oxetan-3-yl)-1H-1,2,3-triazol-4-yl)(4,5,6,7-tetrahydrothieno[2,3-c]pyridin-3-yl)methyl)amino)quinoline-3-carbonitrile] | 3 nM | 457 nM | –
13 | [2H]c1c([C@@H](Nc2cc(Cl)c3ncc(C#N)c(NCC(C)(C)C)c3c2)c2ccc(F)nc2C)nnn1C1(C(F)(F)F)CC1 [Example 549, (S)-8-chloro-6-(((6-fluoro-2-methylpyridin-3-yl)(1-(1-(trifluoromethyl)cyclopropyl)-1H-1,2,3-triazol-4-yl-5-d)methyl)amino)-4-(neopentylamino)quinoline-3-carbonitrile] | 4 nM | 68 nM | –
14 | Cc1nc(F)ccc1[C@H](Nc1cc(Cl)c2ncc(C#N)c(NCC(C)(C)C(F)(F)F)c2c1)c1cn(C2(C3CC3)CC2)nn1 [Example 763, (S)-6-(((1-([1,1′-bi(cyclopropan)]-1-yl)-1H-1,2,3-triazol-4-yl)(6-fluoro-2-methylpyridin-3-yl)methyl)amino)-8-chloro-4-((3,3,3-trifluoro-2,2-dimethylpropyl)amino)-quinoline-3-carbonitrile] | 3 nM | 40 nM | –
15 | [2H]C(Nc1cc(Cl)c2ncc(C#N)c(NCC(C)(C)C)c2c1)(c1cn(C2CC2)nn1)c1cccnc1Cl (stereo not shown) [Example 126, 8-chloro-6-(((2-chloropyridin-3-yl)(1-cyclopropyl-1H-1,2,3-triazol-4-yl)methyl-d)amino)-4-(neopentylamino)quinoline-3-carbonitrile] | 3 nM | 146 nM | –
16 | COc1nccc2c([C@H](Nc3cc(Cl)c4ncc(C#N)c(NCC(C)(C)C)c4c3)c3nnn(C4(C(F)(F)F)CC4)c3F)cccc12 [Example 922, (S)-8-chloro-6-(((5-fluoro-1-(1-(trifluoromethyl)cyclopropyl)-1H-1,2,3-triazol-4-yl)(1-methoxylsoquinolin-5-yl)methyl)amino)-4-(neopentylamino)quinoline-3-carbonitrile] | – | – | IC50 (Human Cot; [1]): 11 nM; EC50 (TNFα; [2]): 225 nM
17 | N#Cc1cnc2c(Cl)cc(N[C@@H](C3=CCOCC3)c3c[nH]nn3)cc2c1Nc1ccc(Cl)c(Cl)c1F [Example 211, (S)-8-chloro-4-((3,4-dichloro-2-fluorophenyl)amino)-6-(((3,6-dihydro-2H-pyran-4-yl)(1H-1,2,3-triazol-4-yl)methyl)amino)quinoline-3-carbonitrile] | 16 nM | 544 nM | –
18 | Cc1c([C@H](Nc2cc(Cl)c3ncc(C#N)c(NCC(C)(C)C)c3c2)c2cn(C3(C(F)F)CC3)nn2)ccc(=O)n1C [Example 732, (S)-8-chloro-6-(((1-(1-(difluoromethyl)cyclopropyl)-1H-1,2,3-triazol-4-yl)(1,2-dimethyl-6-oxo-1,6-dihydropyridin-3-yl)methyl)amino)-4-(neopentylamino)quinoline-3-carbonitrile] | 11 nM | 779 nM | –
19 | CC(C)(C)CNc1c(C#N)cnc2c(C#N)cc(N[C@H](c3cn(C4(C)CC4)nn3)c3cccc4cnccc34)cc12 [Example 581, (S)-6-((isoquinolin-5-yl(1-(1-methylcyclo-propyl)-1H-1,2,3-triazol-4-yl)methyl)amino)-4-(neopentylamino)quinoline-3,8-dicarbonitrile] | 2 nM | 32 nM | –
20 | Cc1nc(F)ccc1[C@H](Nc1cc(Cl)c2ncc(C#N)c(NCC(C)(C)C)c2c1)c1cn(C2(C(=O)O)CC(F)(F)C2)nn1 [Example 624, (S)-1-(4-(((8-chloro-3-cyano-4-(neopentylamino)quinolin-6-yl)amino)(6-fluoro-2-methylpyridin-3-yl)methyl)-1H-1,2,3-triazol-1-yl)-3,3-difluorocyclobutane-1-carboxylic acid] | 11 nM | 1000 nM | –
21 | CCc1nc(F)ccc1[C@H](Nc1cc(Cl)c2ncc(C#N)c(NCC(C)(C)C)c2c1)c1cn(C2(C(F)(F)F)CC2)nn1 [Example 593, (S)-8-chloro-6-(((2-ethyl-6-fluoropyridin-3-yl)(1-(1-(trifluoromethyl)cyclopropyl)-1H-1,2,3-triazol-4-yl)methyl)amino)-4-(neopentylamino)quinoline-3-carbonitrile] | 8 nM | 298 nM | –
22 | Cc1nc(F)ccc1[C@H](Nc1cc(C#N)c2ncc(C#N)c(NCC(C)(C)C)c2c1)c1cn(C2(C)CC2)nn1 [Example 492, (S)-6-(((6-fluoro-2-methylpyridin-3-yl)(1-(1-methylcyclopropyl)-1H-1,2,3-triazol-4-yl)methyl)amino)-4-(neopentylamino)-quinoline-3,8-dicarbonitrile] | 2 nM | 21 nM | –
23 | CC(C)(C)CNc1c(C#N)cnc2c(Cl)cc(N[C@H](c3cn(C4(C(F)(F)F)CC4)nn3)c3cccc4cnc(Cl)cc34)cc12 [Example 915, (S)-8-chloro-6-(((3-chloroisoquinolin-5-yl)(1-(1-(trifluoromethyl)cyclopropyl)-1H-1,2,3-triazol-4-yl)methyl)amino)-4-(neopentylamino)quinoline-3-carbonitrile] | – | – | IC50 (Human Cot; [7]): 44 nM; EC50 (TNFα; [8]): 324 nM
